Test results from US20060094661A1, “NY-ESO-1 peptide analogs” (priority 2004, published 2006).
pEC50: −log10 of the molar value. Where a SMILES comes first, the peptide text is derived from it. [ ]: non-standard residue; d: D form. Nva = CCC[C@H](N)C(=O)O

Tests used:
[1] = molecular target: HLA-A*0201 (Homo sapiens, UniProt P04439, D140Y/D185E/D98H/E176V/E277Q/G131W/G231S/I119V/I121R/I166T/I218V/L300P/L318F/N151K/N90K/P208A/P217A/Q86G/Q94H/R138H/R169H/T345S); test: ED50 (M)
Description: Table printed on a drawing sheet, Figure 27B
Head of the field: ED50 (M)

[2] = tested on: T cell lines specific for the native epitope (PRAME425-433); test: Cross reactivity of PRAME425-433 analogs: IFN-γ secretion from T cell line specific for native epitope; assay type: cell-based; conditions: analog peptide at approximately 0.3 μM; normalized to native peptide
Procedure: At 7 days after the last boost, the mice were sacrificed and a suspension of splenocytes prepared at 5×10^6 […] cells/ml in complete HL-1 medium. Cells were incubated with different concentrations of peptide for 48 hours in flat-bottomed 96-well plates (200 ul/well) and for an additional 24 hours with rIL-2 at 10 U/ml added to the wells. The supernatant was harvested and the concentration of IFN-gamma assessed by standard methods such as ELISA. […] The observed affinities of the analogs are reported as % binding (compared to the positive control) and ED50s. Stability of binding as half time of dissociation. Cross reactivity with the native epitope was assessed by using the analog peptides to stimulate IFG-gamma secretion from a T cell lines specific for the native epitope, essentially as described in Example 6. The data shown in FIGS. 26-28 were generated by stimulating with analog peptide at approximately 0.3 μM. […] In some cases the reported values are the average of two determinations.

CCC[C@H](NC(=O)CNC(=O)[C@@H](NC(=O)[C@H](CC(C)C)NC(=O)[C@H](Cc1c[nH]cn1)NC(=O)[C@H](CCC(N)=O)NC(=O)[C@H](CC(C)C)NC(=O)[C@H](CCC)NC(=O)[C@@H](N)CO)[C@@H](C)CC)C(=O)O [50 | Prame 425-433 (L426(Nva),L433(Nva)), S(Nva)LQHLIG(Nva)] (H-S[Nva]LQHLIG[Nva]-OH; N-terminus and C-terminus assumed)
pEC50 [1]: 5.53

CCC[C@H](NC(=O)CNC(=O)[C@@H](NC(=O)[C@H](CC(C)C)NC(=O)[C@H](Cc1c[nH]cn1)NC(=O)[C@H](CCC(N)=O)NC(=O)[C@H](CC(C)C)NC(=O)[C@H](CCSC)NC(=O)[C@@H](N)CO)[C@@H](C)CC)C(=O)O [56 | Prame 425-433 (L426M,L433(Nva))] (H-SMLQHLIG[Nva]-OH; N-terminus and C-terminus assumed)
pEC50 [1]: 6.16

Lys P1 analog: PRAME425-433 analog with Lys for the Ser at the P1 position (KLLQHLIGL)
IFN-γ elicited, of that of the native peptide [2]: 40%
